Test results: paper PMC7037732, “Synthesis of Combretastatin A-4 and 3′-Aminocombretastatin A-4 derivatives with Aminoacid Containing Pendants and Study of their Interaction with Tubulin and as Downregulators of the VEGF, hTERT and c-Myc Gene Expression” (Molecules, 2020)

Legend:
[1] = tested on: HEK-293 (human embryonic kidney cells); test: Inhibition of cell proliferation (MTT), nontumor HEK-293; format: cell-based; conditions: Homo sapiens, HEK293, 48 h, 48 h of treatment (footnote), average ±SD of three experiments
Description: (§1) The ability of the synthetic compounds to inhibit cell proliferation was established by means of their IC50 values towards the tumor cell lines HT-29 (human colon adenocarcinoma), MCF-7 (breast adenocarcinoma) and A-549 (human pulmonary adenocarcinoma), as well as towards the nontumor cell line HEK-293 (human embryonic kidney cells). Results for compounds derived from CA-4 are presented in Table 1, along with the calculated selectivity indexes SIA (for HT-29 cell line), SIB (for MCF-7 cell line) and SIc (for A-549 cell line), obtained by dividing the IC50 values of the nontumor cell line (HEK-293) by those of the corresponding tumor cell line. The higher the SI index, the higher the therapeutic safety margin.
(§2) Cell culture media were purchased from Gibco (Grand Island, NY, USA). Fetal bovine serum (FBS) was a product of Harlan-Seralab (Belton, U.K.). Supplements and other chemicals not listed in this section were obtained from Sigma Chemical Co. (St. Louis, MO, USA). Plastics for cell culture were supplied by Thermo Fischer Scientific Inc., Madrid, Spain. All tested compounds were dissolved in DMSO at a concentration of 10 μg/mL and stored at −20 °C until use. HT-29, MCF-7, A-549 and HEK-293 cell lines were maintained in a Dulbecco’s modified Eagle’s medium (DMEM) containing glucose (1 g/L), glutamine (2 mM), penicillin (50 IU/mL), streptomycin (50 μg/mL) and amphotericin B (1.25 μg/mL), supplemented with 10% FBS. Cells from human non-small lung carcinoma (clone A549; ATCC n°: CCL2, MD, USA) were routinely grown at 37 °C in a humidified atmosphere of 5% CO2. Cells were maintained in a standard medium composed of RPMI 1640 (Lonza, Group Ltd., Basel, Switzerland), supplemented with 10% fetal bovine serum (FBS), 2 mM L-glutamine and 1% penicillin and streptomycin (Invitrogen). Cells were free from mycoplasma as determined by MycoAlert tests (Lonza, Group Ltd., Basel, Switzerland).
(§3) A total of 5 × 10^3 HT-29, MCF-7 or HEK-293 cells in a total volume of 100 μL of their respective growth media were incubated with serial dilutions of the tested compounds. The 3-(4,5-dimethylthiazol-2-yl)-2,5-diphenyltetrazolium bromide (MTT; Sigma Chemical Co.) dye reduction assay in a 96-well microplate was used, as previously described. […] The resulting formazan was dissolved in 150 μL of 0.04 N HCl/2-propanol and read at 550 nm. All determinations were carried out in triplicate.

[2] = tested on: A-549 cells; test: Cell cycle distribution by flow cytometry; format: cell-based, human; conditions: A-549, 24 h
Experimental: The effects of some CA-4 derivatives on the cell cycle were evaluated in A-549 cells.
The effects of some AmCA-4 derivatives on the cell cycle were also evaluated in A-549 cells.
The supernatant and trypsinated cells were harvested and then centrifuged (1200 rpm, 5 min, 4 °C). The cell pellet was resuspended in 1 mL of cold 70% ethanol for 30 min at −20 °C. Cells were centrifuged (2000 rpm, 5 min, 4 °C) to remove ethanol, and then the cell pellet was resuspended in the staining mix containing 50 µg/mL propidium iodide (Molecular Probes, France) and 100 µg/mL RNAse A (Sigma, France) in PBS for 20 min at room temperature in darkness. Samples were analyzed on a Becton Dickinson FACScan flow cytometer using the CellQuest software, which was also used to determine the percentage of cells in the G2/M phases of the cell cycle. PI was excited at 488 nm, and fluorescence analyzed at 620 nm on channel Fl-2.

[3] = tested on: HT-29 (human colon adenocarcinoma); test: Inhibition of cell proliferation (MTT), HT-29; format: cell-based; conditions: Homo sapiens, HT-29, 48 h, 48 h of treatment (footnote), average ±SD of three experiments
Description: as §1, §2, §3

[4] = tested on: MCF-7 (breast adenocarcinoma); test: Inhibition of cell proliferation (MTT), MCF-7; format: cell-based, human; conditions: Homo sapiens, MCF7, 48 h, 48 h of treatment (footnote), average ±SD of three experiments
Description: as §1, §2, §3

[5] = tested on: A-549 (human pulmonary adenocarcinoma); test: Inhibition of cell proliferation (MTT), A-549; format: cell-based; conditions: Homo sapiens, A549, 48 h, 48 h of treatment (footnote), average ±SD of three experiments
Description: as §1
as §2, with “Switzerland). […]” for “Switzerland).”

[6] = tested on: purified tubulin; test: Critical concentration (CrC) for the assembly of purified tubulin in GAB; format: biochemical; conditions: compound 27.5 μM, tubulin 25 μM, glycerol (GAB) and GTP assembly buffer; control 7.9 ± 1.2
Experimental: The effect on the self-assembly of tubulin was determined by measuring the critical concentration (CrC).

Structure (SMILES) | IC50 ([1]; Table 1) [µM] | G0/G1 ([2]; 100 μM) [%] | G2/M ([2]; 100 μM) [%] | S ([2]; 100 μM) [%] | IC50 ([3]; Table 1) [µM] | IC50 ([4]; Table 1) [µM] | IC50 ([5]; Table 1) [µM] | G0/G1 ([2]; 50 μM) [%] | G2/M ([2]; 50 μM) [%] | S ([2]; 50 μM) [%] | IC50 ([1]; Table 2) [µM] | IC50 ([3]; Table 2) [µM] | IC50 ([4]; Table 2) [µM] | IC50 ([5]; Table 2) [µM] | CrC (critical concentration) [6] [µM]
COC(=O)[C@@H](CC(C)C)NC(=O)COc1cc(/C=C\c2cc(OC)c(OC)c(OC)c2)ccc1OC [Compound 5.2] | 13 ± 3 | 43 ± 4 | 34 ± 1 | 23 ± 4 | 26 ± 1 | 16 ± 3 | 22 ± 3 |  |  |  |  |  |  |  | 
COC(=O)[C@@H](Cc1ccccc1)NC(=O)COc1cc(/C=C\c2cc(OC)c(OC)c(OC)c2)ccc1OC [Compound 5.3] | 3.7 ± 1.6 |  |  |  | 12 ± 4 | 6 ± 1 | 10 ± 3 | 38 ± 2 | 43 ± 1 | 19 ± 2 |  |  |  |  | 
COc1ccc(/C=C\c2cc(OC)c(OC)c(OC)c2)cc1NC(=O)[C@@H]1CCCN1C(=O)OCC1c2ccccc2-c2ccccc21 [Compound 7.6] |  |  |  |  |  |  |  |  |  |  | 0.13 ± 0.03 | 0.32 ± 0.14 | 0.058 ± 0.012 | 1.33 ± 0.09 | 6.0 ± 0.5
COc1ccc(/C=C\c2cc(OC)c(OC)c(OC)c2)cc1NC(=O)[C@@H]1CCCN1 [Compound 8.6] |  |  |  |  |  |  |  |  |  |  | 2.4 ± 1.4 | 0.7 ± 0.2 | 3.1 ± 0.6 | 1.2 ± 0.3 | 8.4 ± 0.1
COc1ccc(/C=C\c2cc(OC)c(OC)c(OC)c2)cc1NC(=O)[C@H](NC(=O)OCC1c2ccccc2-c2ccccc21)C(C)C [Compound 9.1] |  |  |  |  |  |  |  |  |  |  | 5.1 ± 0.7 | 5.5 ± 0.7 | 4.8 ± 0.5 | 7.34 ± 0.23 | 8.9 ± 1.5
COc1ccc(/C=C\c2cc(OC)c(OC)c(OC)c2)cc1NC(=O)[C@@H](CC(C)C)NC(=O)OCC1c2ccccc2-c2ccccc21 [Compound 9.2] |  |  |  |  |  |  |  |  |  |  | 2.4 ± 0.4 | 44 ± 6 | 3.1 ± 0.5 | 48 ± 3 | 6.5 ± 0.7
COc1ccc(/C=C\c2cc(OC)c(OC)c(OC)c2)cc1NC(=O)[C@@H](Cc1ccccc1)NC(=O)OCC1c2ccccc2-c2ccccc21 [Compound 9.3] |  |  |  |  |  |  |  |  |  |  | 11.2 ± 1.5 | 13 ± 5 | 4.5 ± 1.7 | 18.5 ± 1.7 | 6.6 ± 0.2
COc1ccc(/C=C\c2cc(OC)c(OC)c(OC)c2)cc1NC(=O)[C@H](N)Cc1ccccc1 [Compound 10.3] |  |  |  |  |  |  |  |  |  |  | 3.5 ± 0.9 | 3.9 ± 0.8 | 2 ± 0.8 | 2.9 ± 0.5 | 7.7 ± 2.1
COc1ccc(/C=C\c2cc(OC)c(OC)c(OC)c2)cc1NC(=O)[C@H]1CCCN1 [Compound 10.4] |  |  |  |  |  |  |  |  |  |  | 3 ± 0.6 | 4.4 ± 1.9 | 0.6 ± 0.14 | 7.03 ± 0.22 | 8.7 ± 1.2
